Reference: ChEMBL document CHEMBL6078630, “Design, synthesis, and bioactivity investigation of novel cyclic lipopeptide antibiotics targeting top-priority multidrug-resistant gram-negative bacteria” (Eur J Med Chem, 2024)
In brackets after ≈: the same amount, converted by molar mass. Bridge positions count the residues as written; N and C are the ends. Square brackets hold non-standard residues; d marks the D form. Peptide text beside a SMILES is read from it. * marks the point of attachment. Heptanoyl(6-Me) = CC(C)CCCCC(=O)*; dNle = CCCC[C@@H](N)C(=O)O; Octanoyl = CCCCCCCC(=O)*; Dab = NCC[C@H](N)C(=O)O

Legend:
[1] = system: Pseudomonas aeruginosa; assay: Antibacterial activity against carbapenem-resistant Pseudomonas aeruginosa clinical isolate 19-3 assessed as inhibition of bacterial growth incubated for 16 to 20 hrs by CLSI protocol based broth microdilution method; type: functional; details: time 16-20 hrs
[2] = Renal cytotoxicity against HK-2 cells incubated for 72 hrs by CCK8 assay; type: toxicity, cell-based; details: human
[3] = system: Acinetobacter baumannii; assay: Antibacterial activity against Acinetobacter baumannii NCTC 13304 (OXA-27) assessed as inhibition of bacterial growth incubated for 16 to 20 hrs by CLSI protocol based broth microdilution method; type: functional; details: time 16-20 hrs
[4] = system: Acinetobacter baumannii; assay: Antibacterial activity against carbapenem-sensitive Acinetobacter baumannii clinical isolate 19-1 assessed as inhibition of bacterial growth incubated for 16 to 20 hrs by CLSI protocol based broth microdilution method; type: functional; details: time 16-20 hrs
[5] = system: Klebsiella pneumoniae; assay: Antibacterial activity against carbapenem-resistant Klebsiella pneumoniae ATCC BAA-1705 assessed as inhibition of bacterial growth incubated for 16 to 20 hrs by CLSI protocol based broth microdilution method; type: functional; details: time 16-20 hrs
[6] = system: Pseudomonas aeruginosa; assay: Antibacterial activity against Pseudomonas aeruginosa ATCC 27853 assessed as inhibition of bacterial growth incubated for 16 to 20 hrs by CLSI protocol based broth microdilution method; type: functional; details: time 16-20 hrs
[7] = system: Klebsiella pneumoniae; assay: Antibacterial activity against carbapenem-resistant Klebsiella pneumoniae clinical isolate KPN+19-15 assessed as inhibition of bacterial growth incubated for 16 to 20 hrs by CLSI protocol based broth microdilution method; type: functional; details: time 16-20 hrs
[8] = system: Escherichia coli; assay: Antibacterial activity against carbapenem-resistant Escherichia coli ATCC BAA-2340 assessed as inhibition of bacterial growth incubated for 16 to 20 hrs by CLSI protocol based broth microdilution method; type: functional; details: time 16-20 hrs
[9] = system: Escherichia coli; assay: Antibacterial activity against Escherichia coli ATCC BAA-2523 assessed as inhibition of bacterial growth incubated for 16 to 20 hrs by CLSI protocol based broth microdilution method; type: functional; details: time 16-20 hrs

Compound	MIC [1]	IC50 at 72 h [2]	MIC [3]	MIC [4]	MIC [5]	MIC [6]	MIC [7]	MIC [8]	MIC [9]
CC(C)CCCCC(=O)N[C@@H](CCN)C(=O)N[C@H](C(=O)N[C@@H](CCCCN)C(=O)N[C@H]1CCNC(=O)[C@H]([C@@H](C)O)NC(=O)[C@H](CCN)NC(=O)[C@H](CCN)NC(=O)[C@H]([C@@H](C)O)NC(=O)[C@@H](Cc2ccccc2)NC(=O)[C@H](CCN)NC1=O)[C@@H](C)O	4 µg/mL (≈ 3.32 µM)	> 500 µg/mL	1 µg/mL (≈ 0.83 µM)	2 µg/mL (≈ 1.66 µM)	0.25 µg/mL (≈ 0.207 µM)	> 64 µg/mL	0.25 µg/mL (≈ 0.207 µM)	0.25 µg/mL (≈ 0.207 µM)	0.25 µg/mL (≈ 0.207 µM)
CC(C)C[C@@H]1NC(=O)[C@H](CCN)NC(=O)[C@@H](NC(=O)[C@@H](CO)NC(=O)[C@@H](NC(=O)[C@H](CCN)NC(=O)CCCCCCC(=O)O)[C@@H](C)O)CCNC(=O)[C@H]([C@@H](C)O)NC(=O)[C@H](CCN)NC(=O)[C@H](CCN)NC(=O)[C@H]([C@@H](C)O)NC1=O	8 µg/mL (≈ 6.89 µM)	> 500 µg/mL	0.25 µg/mL (≈ 0.215 µM)	0.5 µg/mL (≈ 0.431 µM)	0.5 µg/mL (≈ 0.431 µM)	8 µg/mL (≈ 6.89 µM)	0.25 µg/mL (≈ 0.215 µM)	0.125 µg/mL (≈ 0.108 µM)	0.125 µg/mL (≈ 0.108 µM)
CC(C)CCCCC(=O)N[C@@H](CCN)C(=O)N[C@H](C(=O)N[C@H](CO)C(=O)N[C@H]1CCNC(=O)[C@H]([C@@H](C)O)NC(=O)[C@H](CCN)NC(=O)[C@H](CCN)NC(=O)[C@H](CC(C)C)NC(=O)[C@H](Cc2ccccc2)NC(=O)[C@H](CCN)NC1=O)[C@@H](C)O	2 µg/mL (≈ 1.7 µM)	> 500 µg/mL	≤ 0.03 µg/mL	≤ 0.03 µg/mL	0.125 µg/mL (≈ 0.106 µM)	1 µg/mL (≈ 0.85 µM)	≤ 0.03 µg/mL	≤ 0.03 µg/mL	0.06 µg/mL (≈ 0.051 µM)
CCCCCCCC(=O)N[C@@H](CCN)C(=O)N[C@H](C(=O)N[C@@H](CCN)C(=O)N[C@H]1CCNC(=O)[C@H]([C@@H](C)O)NC(=O)[C@H](CCN)NC(=O)[C@H](CCN)NC(=O)[C@H]([C@@H](C)O)NC(=O)[C@@H](CCC)NC(=O)[C@H](CCN)NC1=O)[C@@H](C)O [listing 1 of 2 here]		> 500 µg/mL							
CCCCCCCC(=O)N[C@@H](CCN)C(=O)N[C@H](C(=O)N[C@@H](CCN)C(=O)N[C@H]1CCNC(=O)[C@H]([C@@H](C)O)NC(=O)[C@H](CCN)NC(=O)[C@H](CCN)NC(=O)[C@H]([C@@H](C)O)NC(=O)[C@@H](CCC)NC(=O)[C@H](CCN)NC1=O)[C@@H](C)O [listing 2 of 2 here]	1 µg/mL (≈ 0.885 µM)		4 µg/mL (≈ 3.54 µM)	4 µg/mL (≈ 3.54 µM)	2 µg/mL (≈ 1.77 µM)	1 µg/mL (≈ 0.885 µM)	0.5 µg/mL (≈ 0.443 µM)	0.5 µg/mL (≈ 0.443 µM)	0.25 µg/mL (≈ 0.221 µM)
CC(C)CCCCC(=O)N[C@@H](CCN)C(=O)N[C@H](C(=O)N[C@H](CCCCN)C(=O)N[C@H]1CCNC(=O)[C@H]([C@@H](C)O)NC(=O)[C@H](CCN)NC(=O)[C@H](CCN)NC(=O)[C@H]([C@@H](C)O)NC(=O)[C@@H](Cc2ccccc2)NC(=O)[C@H](CCN)NC1=O)[C@@H](C)O	4 µg/mL (≈ 3.32 µM)	> 500 µg/mL	0.5 µg/mL (≈ 0.415 µM)	0.5 µg/mL (≈ 0.415 µM)	0.125 µg/mL (≈ 0.104 µM)	32 µg/mL (≈ 26.5 µM)	0.25 µg/mL (≈ 0.207 µM)	1 µg/mL (≈ 0.83 µM)	0.125 µg/mL (≈ 0.104 µM)
CC(C)CCCCC(=O)N[C@@H](CCN)C(=O)N[C@H](C(=O)N[C@@H](CO)C(=O)N[C@H]1CCNC(=O)[C@H]([C@@H](C)O)NC(=O)[C@H](CCN)NC(=O)[C@H](CCN)NC(=O)[C@H]([C@@H](C)O)NC(=O)[C@@H](CC(C)C)NC(=O)[C@H](CCN)NC1=O)[C@@H](C)O	64 µg/mL (≈ 56.6 µM)	> 500 µg/mL	8 µg/mL (≈ 7.08 µM)	8 µg/mL (≈ 7.08 µM)	4 µg/mL (≈ 3.54 µM)	> 64 µg/mL	4 µg/mL (≈ 3.54 µM)	2 µg/mL (≈ 1.77 µM)	2 µg/mL (≈ 1.77 µM)
C[C@@H](O)[C@@H]1NC(=O)[C@H](CCN)NC(=O)[C@H](CCN)NC(=O)[C@H]([C@@H](C)O)NC(=O)[C@H](Cc2ccccc2)NC(=O)[C@H](CCN)NC(=O)[C@@H](NC(=O)[C@@H](CO)NC(=O)[C@@H](NC(=O)[C@H](CCN)NC(=O)CCCCCCC(=O)O)[C@@H](C)O)CCNC1=O	4 µg/mL (≈ 3.35 µM)	> 500 µg/mL	≤ 0.03 µg/mL	0.06 µg/mL (≈ 0.0502 µM)	0.06 µg/mL (≈ 0.0502 µM)	4 µg/mL (≈ 3.35 µM)	≤ 0.03 µg/mL	≤ 0.03 µg/mL	≤ 0.03 µg/mL
CCCCCCCC(=O)N[C@@H](CCN)C(=O)N[C@H](C(=O)N[C@@H](CCN)C(=O)N[C@H]1CCNC(=O)[C@H]([C@@H](C)O)NC(=O)[C@H](CCN)NC(=O)[C@H](CCN)NC(=O)[C@H]([C@@H](C)O)NC(=O)[C@@H](Cc2ccccc2)NC(=O)[C@H](CCN)NC1=O)[C@@H](C)O (Octanoyl-[Dab]T[Dab][Dab][Dab][dF]T[Dab][Dab]T; lactam 4-C) [listing 1 of 2 here]		> 500 µg/mL							
CCCCCCCC(=O)N[C@@H](CCN)C(=O)N[C@H](C(=O)N[C@@H](CCN)C(=O)N[C@H]1CCNC(=O)[C@H]([C@@H](C)O)NC(=O)[C@H](CCN)NC(=O)[C@H](CCN)NC(=O)[C@H]([C@@H](C)O)NC(=O)[C@@H](Cc2ccccc2)NC(=O)[C@H](CCN)NC1=O)[C@@H](C)O (Octanoyl-[Dab]T[Dab][Dab][Dab][dF]T[Dab][Dab]T; lactam 4-C) [listing 2 of 2 here]	0.5 µg/mL (≈ 0.425 µM)		0.25 µg/mL (≈ 0.212 µM)	0.5 µg/mL (≈ 0.425 µM)	0.5 µg/mL (≈ 0.425 µM)	0.5 µg/mL (≈ 0.425 µM)	≤ 0.03 µg/mL	0.06 µg/mL (≈ 0.051 µM)	≤ 0.03 µg/mL
CCCCCCCC(=O)N[C@@H](CCN)C(=O)N[C@H](C(=O)N[C@@H](CCN)C(=O)N[C@H]1CCNC(=O)[C@H]([C@@H](C)O)NC(=O)[C@H](CCN)NC(=O)[C@H](CCN)NC(=O)[C@H]([C@@H](C)O)NC(=O)[C@@H](CC(C)C)NC(=O)[C@H](CCN)NC1=O)[C@@H](C)O (Octanoyl-[Dab]T[Dab][Dab][Dab][dL]T[Dab][Dab]T; lactam 4-C) [listing 1 of 2 here]		> 500 µg/mL							
CCCCCCCC(=O)N[C@@H](CCN)C(=O)N[C@H](C(=O)N[C@@H](CCN)C(=O)N[C@H]1CCNC(=O)[C@H]([C@@H](C)O)NC(=O)[C@H](CCN)NC(=O)[C@H](CCN)NC(=O)[C@H]([C@@H](C)O)NC(=O)[C@@H](CC(C)C)NC(=O)[C@H](CCN)NC1=O)[C@@H](C)O (Octanoyl-[Dab]T[Dab][Dab][Dab][dL]T[Dab][Dab]T; lactam 4-C) [listing 2 of 2 here]	0.5 µg/mL (≈ 0.437 µM)		1 µg/mL (≈ 0.875 µM)	1 µg/mL (≈ 0.875 µM)	2 µg/mL (≈ 1.75 µM)	1 µg/mL (≈ 0.875 µM)	0.25 µg/mL (≈ 0.219 µM)	0.06 µg/mL (≈ 0.0525 µM)	0.25 µg/mL (≈ 0.219 µM)
CCCCCCCC(=O)N[C@@H](CCN)C(=O)N[C@H](C(=O)N[C@@H](CCN)C(=O)N[C@H]1CCNC(=O)[C@H]([C@@H](C)O)NC(=O)[C@H](CCN)NC(=O)[C@H](CCN)NC(=O)[C@H]([C@@H](C)O)NC(=O)[C@@H](CCCC)NC(=O)[C@H](CCN)NC1=O)[C@@H](C)O (Octanoyl-[Dab]T[Dab][Dab][Dab][dNle]T[Dab][Dab]T; lactam 4-C) [listing 1 of 2 here]		> 500 µg/mL							
CCCCCCCC(=O)N[C@@H](CCN)C(=O)N[C@H](C(=O)N[C@@H](CCN)C(=O)N[C@H]1CCNC(=O)[C@H]([C@@H](C)O)NC(=O)[C@H](CCN)NC(=O)[C@H](CCN)NC(=O)[C@H]([C@@H](C)O)NC(=O)[C@@H](CCCC)NC(=O)[C@H](CCN)NC1=O)[C@@H](C)O (Octanoyl-[Dab]T[Dab][Dab][Dab][dNle]T[Dab][Dab]T; lactam 4-C) [listing 2 of 2 here]	1 µg/mL (≈ 0.875 µM)		1 µg/mL (≈ 0.875 µM)	1 µg/mL (≈ 0.875 µM)	2 µg/mL (≈ 1.75 µM)	1 µg/mL (≈ 0.875 µM)	0.125 µg/mL (≈ 0.109 µM)	0.125 µg/mL (≈ 0.109 µM)	0.125 µg/mL (≈ 0.109 µM)
CC(C)CCCCC(=O)N[C@@H](CCN)C(=O)N[C@H](C(=O)N[C@@H](CCN)C(=O)N[C@H]1CCNC(=O)[C@H]([C@@H](C)O)NC(=O)[C@H](CCN)NC(=O)[C@H](CCN)NC(=O)[C@H]([C@@H](C)O)NC(=O)[C@@H](Cc2ccccc2)NC(=O)[C@H](CCN)NC1=O)[C@@H](C)O ({Heptanoyl(6-Me)}-[Dab]T[Dab][Dab][Dab][dF]T[Dab][Dab]T; lactam 4-C) [listing 1 of 2 here]		> 500 µg/mL							
CC(C)CCCCC(=O)N[C@@H](CCN)C(=O)N[C@H](C(=O)N[C@@H](CCN)C(=O)N[C@H]1CCNC(=O)[C@H]([C@@H](C)O)NC(=O)[C@H](CCN)NC(=O)[C@H](CCN)NC(=O)[C@H]([C@@H](C)O)NC(=O)[C@@H](Cc2ccccc2)NC(=O)[C@H](CCN)NC1=O)[C@@H](C)O ({Heptanoyl(6-Me)}-[Dab]T[Dab][Dab][Dab][dF]T[Dab][Dab]T; lactam 4-C) [listing 2 of 2 here]	1 µg/mL (≈ 0.849 µM)		0.25 µg/mL (≈ 0.212 µM)	0.5 µg/mL (≈ 0.425 µM)	0.5 µg/mL (≈ 0.425 µM)	1 µg/mL (≈ 0.849 µM)	≤ 0.03 µg/mL	≤ 0.03 µg/mL	0.06 µg/mL (≈ 0.051 µM)
